The values that follow are results of earlier work, collected in patent EP0851285A1, “Photothermographic recording material coatable from an aqueous medium” (priority 1996, dated 1998).

The conditions of the data set: salts B.

`O=P(=O)[O-].[Ag+]` [silver metaphosphate]: the “Solubility in water at 20°C” value (20°C) is given as 0.32 g/100mL water.
`[Ag+].[Ag+].[O]=[W](=[O])([O-])[O-]` [silver tungstate]: under “at 15°C (cell overrides title's 20°C)”, the Solubility in water is 0.05 (at 15°C) g/100mL water.
